This passage reports IC50 results from patent publication US12459932B2, “KIF18A inhibitors” (AMGEN INC., priority 2018, dated 2025).

This assay deals with T1, Recombinant human KIF18A (1-467 His-tagged) (Homo sapiens, UniProt Q8NI77).
T1 construct: Recombinant human KIF18A (1-467 His-tagged) protein; His
T1 sequence (Q8NI77 1-467): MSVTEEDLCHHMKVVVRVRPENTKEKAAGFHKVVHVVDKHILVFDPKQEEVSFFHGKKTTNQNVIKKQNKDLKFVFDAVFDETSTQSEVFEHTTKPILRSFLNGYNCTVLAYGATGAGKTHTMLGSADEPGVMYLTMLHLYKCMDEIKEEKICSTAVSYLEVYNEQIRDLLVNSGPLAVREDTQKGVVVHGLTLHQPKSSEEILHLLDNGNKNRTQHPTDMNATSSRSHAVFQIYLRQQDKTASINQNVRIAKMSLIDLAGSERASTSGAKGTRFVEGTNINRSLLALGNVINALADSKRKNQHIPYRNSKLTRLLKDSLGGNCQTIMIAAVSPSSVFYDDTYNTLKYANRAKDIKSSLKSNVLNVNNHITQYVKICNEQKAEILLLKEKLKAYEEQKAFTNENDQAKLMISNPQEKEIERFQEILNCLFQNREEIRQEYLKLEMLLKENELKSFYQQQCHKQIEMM
T1 sequence (P02550 whole entry partner): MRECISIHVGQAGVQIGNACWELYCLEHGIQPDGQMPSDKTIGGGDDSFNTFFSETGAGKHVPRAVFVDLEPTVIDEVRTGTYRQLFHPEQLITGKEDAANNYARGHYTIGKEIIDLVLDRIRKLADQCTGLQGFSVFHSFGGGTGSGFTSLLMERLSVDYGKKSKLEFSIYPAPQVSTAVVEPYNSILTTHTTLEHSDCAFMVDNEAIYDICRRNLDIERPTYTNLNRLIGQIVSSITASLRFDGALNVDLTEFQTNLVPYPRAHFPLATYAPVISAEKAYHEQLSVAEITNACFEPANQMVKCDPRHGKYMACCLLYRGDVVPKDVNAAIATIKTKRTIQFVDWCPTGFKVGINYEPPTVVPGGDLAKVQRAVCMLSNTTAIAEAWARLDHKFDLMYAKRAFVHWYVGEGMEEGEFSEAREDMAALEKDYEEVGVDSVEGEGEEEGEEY
T1 sequence (P02554 whole entry partner): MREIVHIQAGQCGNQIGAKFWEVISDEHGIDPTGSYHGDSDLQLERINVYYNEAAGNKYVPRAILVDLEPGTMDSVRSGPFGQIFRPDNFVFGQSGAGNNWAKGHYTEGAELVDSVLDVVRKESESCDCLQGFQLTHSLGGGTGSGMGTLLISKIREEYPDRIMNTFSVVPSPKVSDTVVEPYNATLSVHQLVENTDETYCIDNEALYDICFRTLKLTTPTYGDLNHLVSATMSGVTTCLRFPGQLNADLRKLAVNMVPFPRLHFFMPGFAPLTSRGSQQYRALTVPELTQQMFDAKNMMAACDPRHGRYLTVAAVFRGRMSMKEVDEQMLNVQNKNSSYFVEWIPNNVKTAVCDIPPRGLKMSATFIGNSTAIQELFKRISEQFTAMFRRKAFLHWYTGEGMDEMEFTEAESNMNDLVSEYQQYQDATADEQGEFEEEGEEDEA
As to the kind of experiment: KIF18A Enzyme Assay: microtubule-stimulated ATPase activity (ADP-Glo). Conditions: 30 nM KIF18A, 30 μg/mL pig microtubules, ATP 75 μM (Km), ADP-Glo luminescence. It is filed as biochemical. Put shortly:
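Measures microtubule-stimulated ATPase activity as ADP formed, detected by luminescence. Compounds were tested as 2-fold serial dilutions over 22 points. IC50 values came from four-parameter logistic fits.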
For orientation: ADP-Glo first removes unused ATP, then detects ADP through luciferase.
On to `Cc1cc(NC(=O)c2ccc(NS(=O)(=O)C3(CO)CC3)cc2N2CCC3(CC2)CC3)nc(N2CCC(F)(F)CC2)c1` [Example 10, N-(6-(4,4-Difluoropiperidin-1-yl)-4-methylpyridin-2-yl)-4-((1-(hydroxymethyl)cyclopropane)-1-sulfonamido)-2-(6-azaspiro[2.5]octan-6-yl)benzamide], for which the IC50 – broadly, the concentration needed to halve the response being measured – is 0.122 µM.
In the case of `Cc1cc(NC(=O)c2ccc(S(=N)(=O)C3CC3)cc2N2CCC3(CC2)CC3)nc(N2CCO[C@H](C)C2)c1` (single isomer, unassigned) [Example 29-1] it was 0.165 µM; in that of `C[C@@H]1CN(c2cccc(NC(=O)c3ccc(NS(=O)(=O)C4CCC4)cc3N3CCC4(CC3)CC4)n2)CCO1` [Example 7-9, (R)-4-(Cyclobutanesulfonamido)-N-(6-(2-methylmorpholino)pyridin-2-yl)-2-(6-azaspiro[2.5]octan-6-yl)benzamide], 0.062 µM; in that of `CC(O)COc1cccc(NC(=O)c2ccc(NS(=O)(=O)CCO)cc2N2CCC3(CC2)CC3)n1` (stereo not drawn) [Example 16-4, 4-((2-Hydroxyethyl)sulfonamido)-N-(6-(2-hydroxypropoxy)pyridin-2-yl)-2-(6-azaspiro[2.5]octan-6-yl)benzamide], 0.115 µM.
In the case of `C[C@H]1CN(c2cccc(NC(=O)c3ccc(NS(=O)(=O)CCO)cc3N3CCC4(CC3)CC4)n2)CCO1` [Example 7-13, (S)-4-((2-Hydroxyethyl)sulfonamido)-N-(6-(2-methylmorpholino)pyridin-2-yl)-2-(6-azaspiro[2.5]octan-6-yl)benzamide] it was 0.046 µM.
In the case of `CC1(S(=O)(=O)Nc2ccc(C(=O)Nc3cccc(N4CC(F)(F)C4)n3)c(N3CCC4(CC3)CC4)c2)CC1` [Example 3-18, N-(6-(3,3-Difluoroazetidin-1-yl)pyridin-2-yl)-4-((1-methylcyclopropane)-1-sulfonamido)-2-(6-azaspiro[2.5]octan-6-yl)benzamide] it was 0.048 µM; in that of `Cc1cc(NC(=O)c2ccc(S(=O)(=O)NC3(C)COC3)cc2N2CCC3(CC2)CC3)nc(N2CCO[C@H](C)C2)c1` [Example 1-8, (R)-N-(4-Methyl-6-(2-methylmorpholino)pyridin-2-yl)-4-(N-(3-methyloxetan-3-yl)sulfamoyl)-2-(6-azaspiro[2.5]octan-6-yl)benzamide], 0.119 µM; in that of `C[C@@H]1CN(c2cccc(NC(=O)c3ccc(NS(=O)(=O)C4(C)CC4)cc3N3CCC4(CC3)CC4)n2)CCO1` [Example 4-14, (R)-4-((1-Methylcyclopropane)-1-sulfonamido)-N-(6-(2-methylmorpholino)pyridin-2-yl)-2-(6-azaspiro[2.5]octan-6-yl)benzamide], 0.066 µM.
With `C[C@@H]1CN(c2cccc(NC(=O)c3ccc(S(=O)(=O)C4COC4)cc3N3CCC4(CC3)CC4)n2)CCO1` [Example 2-4, (R)-N-(6-(2-Methylmorpholino)pyridin-2-yl)-4-(oxetan-3-ylsulfonyl)-2-(6-azaspiro[2.5]octan-6-yl)benzamide], the IC50 came to 0.038 µM.
`C[C@@H]1CN(c2cccc(NC(=O)c3ccc(S(=O)(=O)N4CCC4)cc3N3CCC4(CC3)CC4)n2)CCO1` [Example 1-7, (R)-4-(Azetidin-1-ylsulfonyl)-N-(6-(2-methylmorpholino)pyridin-2-yl)-2-(6-azaspiro[2.5]octan-6-yl)benzamide]: the IC50 was found to be 0.067 µM.
Consider `Cc1cc(NC(=O)c2ccc(S(=O)(=O)NC(C)(C)C)cc2N2CCC3(CC2)CC3)nc(N2CCOCC2)c1` [Example 1-10, 4-(N-(tert-Butyl)sulfamoyl)-N-(4-methyl-6-morpholinopyridin-2-yl)-2-(6-azaspiro[2.5]octan-6-yl)benzamide], for which the IC50 came to 0.222 µM.
Regarding `C[C@@H]1CN(c2cccc(NC(=O)c3ccc(NS(=O)(=O)CCO)cc3N3CCC4(CC3)CC4)n2)CCO1` [Example 7-12, (R)-4-((2-Hydroxyethyl)sulfonamido)-N-(6-(2-methylmorpholino)pyridin-2-yl)-2-(6-azaspiro[2.5]octan-6-yl)benzamide], the IC50 came out at 0.03 µM.
On to `Cc1cc(NC(=O)c2ccc(NS(=O)(=O)C3COC3)cc2N2CCC3(CC2)CC3)nc(N2CC(F)(F)C2)c1` [Example 7-32, N-(6-(3,3-Difluoroazetidin-1-yl)-4-methylpyridin-2-yl)-4-(oxetane-3-sulfonamido)-2-(6-azaspiro[2.5]octan-6-yl)benzamide], for which the IC50 came out at 0.025 µM.
In the case of `C[C@@H]1CN(c2cccc(NC(=O)c3ccc(S(C)(=N)=O)cc3N3CCC4(CC3)CC4)n2)CCO1` (stereo in doubt) [Example 13-4, 2-(6-Azaspiro[2.5]octan-6-yl)-N-(6-((2R)-2-methyl-4-morpholinyl)-2-pyridinyl)-4-(R-methylsulfonimidoyl)benzamide], the half-maximal inhibitory concentration (IC50) worked out at 0.154 µM.
On to `C[C@@H]1CN(c2cccc(NC(=O)c3ccc(NS(C)(=O)=O)cc3N3CCC4(CC3)CC4)n2)CCO1` [Example 7-2, (R)-N-(6-(2-Methylmorpholino)pyridin-2-yl)-4-(methylsulfonamido)-2-(6-azaspiro[2.5]octan-6-yl)benzamide], for which the IC50 stood at 0.039 µM.
In the case of `CC(Oc1cccc(NC(=O)c2ccc(NS(=O)(=O)CCO)cc2N2CCC3(CC2)CC3)n1)C1CC1` (stereo not drawn) [Example 16-1, N-(6-(1-Cyclopropylethoxy)pyridin-2-yl)-4-((2-hydroxyethyl)sulfonamido)-2-(6-azaspiro[2.5]octan-6-yl)benzamide] it was 0.051 µM.
In the case of `Cc1cc(NC(=O)c2ccc(NS(=O)(=O)CCO)cc2N2CCC3(CC2)CC3)nc(OCCCC(F)(F)F)c1` [Example 17-3, 4-((2-Hydroxyethyl)sulfonamido)-N-(4-methyl-6-(4,4,4-trifluorobutoxy)pyridin-2-yl)-2-(6-azaspiro[2.5]octan-6-yl)benzamide] it was 0.184 µM; in that of `CC1(NS(=O)(=O)c2ccc(C(=O)Nc3cccc(C(C)(C)O)n3)c(N3CCC4(CC3)CC4)c2)COC1` [Example 4-2, N-(6-(2-Hydroxypropan-2-yl)pyridin-2-yl)-4-(N-(3-methyloxetan-3-yl)sulfamoyl)-2-(6-azaspiro[2.5]octan-6-yl)benzamide], 0.08 µM.
Take `Cc1cc(NC(=O)c2ccc(S(=O)(=O)CCO)cc2N2CCC3(CC2)CC3)nc(N2CCO[C@H](C)C2)c1` [Example 2-7, (R)-4-((2-Hydroxyethyl)sulfonyl)-N-(4-methyl-6-(2-methylmorpholino)pyridin-2-yl)-2-(6-azaspiro[2.5]octan-6-yl)benzamide]: the IC50 stood at 0.103 µM.
In the case of `CC1(S(=O)(=O)Nc2ccc(C(=O)Nc3cccc(N4CCO[C@@H](CO)C4)n3)c(N3CCC4(CC3)CC4)c2)CC1` [Example 3-11, (R)-N-(6-(2-(Hydroxymethyl)morpholino)pyridin-2-yl)-4-((1-methylcyclopropane)-1-sulfonamido)-2-(6-azaspiro[2.5]octan-6-yl)benzamide] it was 0.073 µM; in that of `CC1(COc2cccc(NC(=O)c3ccc(NS(=O)(=O)CCO)cc3N3CCC4(CC3)CC4)n2)COC1` [Example 16-2, 4-((2-Hydroxyethyl)sulfonamido)-N-(6-((3-methyloxetan-3-yl)methoxy)pyridin-2-yl)-2-(6-azaspiro[2.5]octan-6-yl)benzamide], 0.05 µM.
